The structures appear in SMILES notation.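 Interpolation was linear, between the two tested concentrations surrounding the appropriate level; five concentrations were tested over 48 hours in 96-well plates. GI50: concentration for 50% inhibition of growth.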 Calls of active or inactive are those of the source. No stated cut-off is given here; in the data, active = GI50 up to about 1.1 µM and inactive = higher. A value given as a limit tells only on which side of the number the result lay.

Some test systems named below: SNB-19; OVCAR-5; HCC 2998; IGROV-1; BT-549; HL-60; ACHN; K562; PC-3; EKVX; SF-539; KM12; NCI-H522; NCI/ADR-RES; TK-10; LOX IMVI; CCRF-CEM; SF-268; Malme-3M.
What all share (assay): NCI-60 cell line screen, 48 h

As for `OCC(O)COCn1cc(Cn2ncc3c(O)ncnc32)nn1` (stereo unspecified), the GI50 in the assay on SNB-19, in the assay with OVCAR-5, with HCC 2998, in the assay with IGROV-1, with BT-549 and with HL-60 was > 100 µM (inactive) each time. The GI50 in the assay with ACHN, in the assay on K562, in the assay on PC-3, in the assay on EKVX, in the assay with SF-539 and in the assay with KM12 was > 100 µM (inactive) each time. Further, the GI50 in the assay with NCI-H522 was 28.5 µM (inactive); with NCI/ADR-RES, > 100 µM (inactive); with TK-10, > 100 µM (inactive); in the assay on LOX IMVI it was > 100 µM (inactive); with CCRF-CEM, > 100 µM (inactive).
For `O=C1O[C@H](COC(=O)c2ccccc2)[C@@H](OC(=O)c2ccccc2)C=C1OC(=O)c1ccccc1`, the GI50 in the assay on SNB-19 is 18.1 µM (inactive); in the assay with OVCAR-5, 21 µM (inactive); with HCC 2998 it was > 100 µM (inactive); in the assay with IGROV-1, 21.5 µM (inactive); with SF-268, 18.3 µM (inactive); in the assay with BT-549 it was 16.4 µM (inactive). In addition, the GI50 is 10.5 µM (inactive) in the assay on HL-60; 16 µM (inactive) with ACHN; 24.3 µM (inactive) with K562; 25.4 µM (inactive) with PC-3; 17.7 µM (inactive) with EKVX; 17.6 µM (inactive) in the assay with SF-539. Also, the GI50 in the assay on KM12 was 33.7 µM (inactive); with NCI-H522, 20.2 µM (inactive); with NCI/ADR-RES, 18.9 µM (inactive); in the assay with TK-10, 27.9 µM (inactive); with LOX IMVI, 19.8 µM (inactive); with CCRF-CEM, 14.1 µM (inactive).
For the compound `O=C1NC(N2CCOCC2)=N/C1=C\c1ccco1`, the GI50 in the assay on SNB-19, in the assay on OVCAR-5, with HCC 2998, with IGROV-1, in the assay with SF-268 and in the assay on BT-549 was > 100 µM (inactive) in each case. Further, the GI50 in the assay on HL-60, with ACHN, in the assay on PC-3, in the assay with EKVX, with SF-539 and with KM12 was > 100 µM (inactive) in each case. The GI50 with NCI-H522, in the assay on NCI/ADR-RES, in the assay on TK-10, with LOX IMVI and with CCRF-CEM was > 100 µM (inactive) throughout.
On to `COc1cc(C2c3cc4c(cc3OC(NN)C2C)OCO4)cc(OC)c1O` (stereo unspecified), for which the GI50 with SNB-19 is 32.5 µM (inactive); in the assay with OVCAR-5, 31.6 µM (inactive); with Malme-3M it was 5.71 µM (inactive); in the assay on HCC 2998, 12.4 µM (inactive); in the assay with IGROV-1, 5.94 µM (inactive); in the assay with SF-268, 28.3 µM (inactive). Moreover, the GI50 in the assay with BT-549 is 10.3 µM (inactive); in the assay on HL-60, 2.24 µM (inactive); in the assay on K562, 3.08 µM (inactive); in the assay with PC-3, 10.4 µM (inactive); in the assay with SF-539 it was 11.9 µM (inactive); in the assay with KM12 it was 6.08 µM (inactive). The GI50 with NCI-H522 is 5.96 µM (inactive); in the assay with NCI/ADR-RES, 4.52 µM (inactive); in the assay with TK-10 it was 26.2 µM (inactive).
`COC1C(=O)CCC2(CO2)C1(O)C1(C)OC1CCC(C)C` (stereo unspecified): the GI50 in the assay with SNB-19 is 34.2 µM (inactive); with OVCAR-5 it was > 100 µM (inactive); with Malme-3M, 30.2 µM (inactive); in the assay with HCC 2998, 47.2 µM (inactive); in the assay with IGROV-1, 48.1 µM (inactive); in the assay on SF-268, 78.3 µM (inactive). Also, the GI50 was > 100 µM (inactive) in the assay on BT-549; 42.8 µM (inactive) with HL-60; 28.2 µM (inactive) in the assay on ACHN; 32.5 µM (inactive) in the assay on K562; 25.9 µM (inactive) in the assay with PC-3; > 100 µM (inactive) in the assay on EKVX. Moreover, the GI50 in the assay with SF-539 was > 100 µM (inactive); with KM12, 10.2 µM (inactive); with NCI-H522 it was > 100 µM (inactive); in the assay on NCI/ADR-RES it was > 100 µM (inactive); in the assay with CCRF-CEM, 40.4 µM (inactive).
Consider `COc1cc(N(Cc2ccc3nc(OC)c(OC)nc3c2)Cc2ccc3nc(OC)c(OC)nc3c2)cc(OC)c1OC`, for which the GI50 was 14.9 µM (inactive) with SNB-19; > 50 µM (inactive) with OVCAR-5; > 50 µM (inactive) in the assay with Malme-3M; 32.1 µM (inactive) in the assay on SF-268; 6.78 µM (inactive) in the assay on BT-549; > 50 µM (inactive) in the assay on HL-60. Besides, the GI50 is 42.2 µM (inactive) in the assay on ACHN; > 50 µM (inactive) in the assay with PC-3; 39.3 µM (inactive) in the assay on EKVX; 26.3 µM (inactive) with SF-539; > 50 µM (inactive) in the assay on KM12; > 50 µM (inactive) in the assay on NCI-H522. The GI50 was > 50 µM (inactive) in the assay on NCI/ADR-RES, 30.8 µM (inactive) with TK-10 and > 50 µM (inactive) with LOX IMVI.
Consider `CC(CN(C)C)C(=O)/C=C/c1ccc(Cl)c(Cl)c1` (stereo unspecified), for which the GI50 is 5.43 µM (inactive) with SNB-19; 2.06 µM (inactive) in the assay with OVCAR-5; 1.94 µM (inactive) with HCC 2998; 1.78 µM (inactive) in the assay on IGROV-1; 1.85 µM (inactive) with SF-268; 2.14 µM (inactive) with BT-549. For the same compound, the GI50 was 1.62 µM (inactive) in the assay with HL-60; 1.87 µM (inactive) with ACHN; 3.01 µM (inactive) in the assay with K562; 1.04 µM (active) in the assay with PC-3; 1.7 µM (inactive) with EKVX; 1.46 µM (inactive) with SF-539. For the same compound, the GI50 with KM12 was 1.31 µM (inactive); with NCI-H522, 1.55 µM (inactive); in the assay with NCI/ADR-RES, 3.52 µM (inactive); in the assay on TK-10, 2.02 µM (inactive); in the assay on LOX IMVI, 1.56 µM (inactive); in the assay with CCRF-CEM, 0.453 µM (active).
As for `Cc1ccc(/N=N/c2ccc(N)cc2C)c(S(N)(=O)=O)c1`, the GI50 with SNB-19 is > 100 µM (inactive); in the assay with OVCAR-5 it was > 100 µM (inactive); with Malme-3M, > 100 µM (inactive); with IGROV-1, 77.3 µM (inactive); in the assay on SF-268 it was > 100 µM (inactive); in the assay with BT-549 it was > 100 µM (inactive). Also, the GI50 in the assay on HL-60 is 29.6 µM (inactive); with ACHN, 90.6 µM (inactive); with K562, 75.9 µM (inactive); with PC-3, 89.7 µM (inactive); with EKVX, 26.1 µM (inactive); in the assay on SF-539, > 100 µM (inactive). The GI50 is > 100 µM (inactive) in the assay with KM12; 36.4 µM (inactive) with NCI-H522; 76.6 µM (inactive) with NCI/ADR-RES; 48.9 µM (inactive) in the assay on TK-10; 78.5 µM (inactive) in the assay on LOX IMVI; 48.1 µM (inactive) in the assay on CCRF-CEM.
Turning to `CC(=O)C12C[C@](C#N)(N3CCCCCC3)C1C=Cc1ccccc12` (stereo partly specified), the GI50 with SNB-19, with HCC 2998, in the assay with IGROV-1, in the assay with SF-268, in the assay on BT-549 and in the assay on HL-60 was > 100 µM (inactive) each time. Also, the GI50 with ACHN, in the assay on K562, in the assay with PC-3, with EKVX, in the assay with SF-539 and in the assay on KM12 was > 100 µM (inactive) in each case. Moreover, the GI50 in the assay on NCI-H522, in the assay on NCI/ADR-RES, with TK-10 and in the assay on CCRF-CEM was > 100 µM (inactive) each time.

The record behind these values is ChEMBL document CHEMBL1201862, “PubChem BioAssay data set” (2004).
